Reference: patent publication US12545688B2, “Camptothecin derivative and conjugate thereof” (SICHUAN BAILI PHARMACEUTICAL CO., LTD, priority 2019, dated 2026)
Where two headings read alike, the source gives them in different places.

What was measured:
Assay in all cases: In vitro activity test, inhibition of target cell proliferation (MTS)
Assay type in all cases: cell-based
Bxpc-3 = conditions: Homo sapiens, read-out: IC50 for the inhibition of target cell proliferation in vitro, Bxpc-3
Experimental: (§1) • Cells: A431, SW620, BXPC3, Fadu from the Cell Bank of the Chinese Academy of • Sciences Cell • Culture medium DMEM: Gibco • FBS: BIOWEST
(§2) • Growth medium (with 10% FBS, Penicillin/streptomycin (100 U/mL) • Detection medium (with 1% FBS, Penicillin/streptomycin (100 U/mL)
(§3) Turn on the UV light of the biological safety cabinet 30 minutes in advance, and then turn on the ventilation for 3 minutes. The growth medium, detection medium, D-PBS and trypsin were preheated in a constant temperature water bath at 37° C., and then the surfaces were disinfected with alcohol and placed in a biological safety cabinet. Place the cells with a confluence of about 80% in a biological safety cabinet, aspirate the old medium, rinse with D-PBS, aspirate and discard, digest with trypsin for 2-3 min, add growth medium to neutralize, and centrifuge. 1200 rpm, 3 min. Aspirate the centrifugation supernatant, mix with 4 mL of detection medium, and count 100 uL (50 uL of cell fluid is taken out, 50 μL of Trypan Blue Stain is added and mixed, and counted after mixing). According to the pre-optimized cell plating density, 80 ul/well was plated in a 96-well plate. Only 80 uL detection medium was added to wells E11 and F11, and 150 uL of DPBS was added to the edge wells. 24 h after plating, add diluted antibody, 20 uL per well and set control, only add 20 uL detection medium in column 11, set 2 duplicate wells for each concentration, and mix on a cell vortex shaker after adding, 550 rpm, 3 min.
(§4) Dilution of the antibody solution: use the detection medium to prepare the test solution with an initial concentration of 5 uM and 300 uL in the first column of the V-shaped 96-well plate, and then add 240 uL of detection medium to the second to 10th columns respectively, take 60 uL from the first column of mixing and add it to the second column, mix up and down with a row gun for 10 times, discard the pipette tip, and operate the following 7 concentrations in sequence.
(§5) After 4 days, take out the MTS reagent, thaw at room temperature in the dark, vortex and mix well, add 20 μL of CellTiter One Solution Reagen MTS reagent per 100 μL of cell culture volume along the side wall of the well in the biological safety cabinet, and tap gently. After the MTS solution was evenly mixed, it was placed in a cell incubator for 2 h in the dark. After the reaction, the 96-well plate was taken out, the absorbance at OD490 nm was detected in a microplate reader, and the data was recorded, organized, analyzed and stored.

A431 = conditions: Homo sapiens, A-431, 96 h, read-out: IC50 for the inhibition of target cell proliferation in vitro, A431
Experimental: as §1, §2, §3, §4, §5

Fadu = conditions: Homo sapiens, 96 h, read-out: IC50 for the inhibition of target cell proliferation in vitro, Fadu
Experimental: as §1, §2, §3, §4, §5

SW620 = conditions: Homo sapiens, SW-620, 96 h, read-out: IC50 for the inhibition of target cell proliferation in vitro, SW620
Experimental: as §1, §2, §3, §4, §5

[1] = 96 h, Bxpc-3 cells, MTS after 4 days

SMILES | IC50 (Bxpc-3; [1]) | IC50 (A431; A431 cells, MTS after 4 days) | IC50 (Fadu; Fadu cells, MTS after 4 days) | IC50 (SW620; SW620 cells, MTS after 4 days) | IC50 (Bxpc-3; BXPC-3, 96 h) | IC50 (A431) | IC50 (Fadu; FaDu) | IC50 (SW620)
CC[C@@]1(O)C(=O)OCc2c1cc1n(c2=O)Cc2c-1nc1cc(F)c(C)c3c1c2[C@@H](N(C)C(=O)CO)CC3 [Compound 6] | 13.1 nM | 3.63 nM | 1.64 nM | 17.7 nM |  |  |  | 
CCCN(C(=O)CO)[C@H]1CCc2c(C)c(F)cc3nc4c(c1c23)Cn1c-4cc2c(c1=O)COC(=O)[C@]2(O)CC [Compound 12] |  |  |  |  | 1.6 to 8 nM | 1.1 nM | 0.13 nM | 200 to 1000 nM
CC[C@@]1(O)C(=O)OCc2c1cc1n(c2=O)Cc2c-1nc1cc(F)c(C)c3c1c2[C@@H](N(C)C(=O)C1(O)CC1)CC3 [Compound 14] |  |  |  |  | 153 nM | 93.3 nM | 53 nM | 200 to 1000 nM
CC[C@@]1(O)C(=O)OCc2c1cc1n(c2=O)Cc2c-1nc1cc(F)c(C)c3c1c2[C@@H](N(C)C(=O)[C@H](C)O)CC3 [Compound 16] | 0.00256 to 0.0128 nM | 0.03 nM | 0.0014 nM | 0.064 to 0.32 nM |  |  |  | 
